Numbered stars: 1 amine (or outer) side, 2 acyl side, 3 side chain; on linkers, the order of the positions; unused ones are H or OH. Bridge positions count the residues as written; N and C are the ends. Square brackets hold non-standard residues; d marks the D form. Peptide text beside a SMILES is read from it. * marks the point of attachment. X32 = N=C(N)NCc1ccc(C[C@H](N[*:1])C(=O)[*:2])cc1; Phe(3-CF3) = N[C@@H](Cc1cccc(C(F)(F)F)c1)C(=O)O; Ala(morpholin-4-yl) = N[C@@H](CN1CCOCC1)C(=O)O; Phe(4-COOH) = N[C@@H](Cc1ccc(C(=O)O)cc1)C(=O)O; Bip = N[C@@H](Cc1ccc(-c2ccccc2)cc1)C(=O)O; Phe(3-Me) = Cc1cccc(C[C@H](N)C(=O)O)c1; Val(3-OH) = CC(C)(O)[C@H](N)C(=O)O; hPhe = N[C@@H](CCc1ccccc1)C(=O)O; Cha = N[C@@H](CC1CCCCC1)C(=O)O; Carboxymethyl = O=C(O)C*; NMeA = CN[C@@H](C)C(=O)O; Orn = NCCC[C@H](N)C(=O)O; Dab = NCC[C@H](N)C(=O)O
Each compound was assayed against T1, Alexa fluor-647 labeled human PD-L1-Ig binding to Jurkat cell line over-expressing human PD-1 (Homo sapiens, UniProt Q15116) (assay: Jurkat-PD-1 Cell Binding High-Content Screening Assay (CBA): Method 3 (Alexa fluor-647 labeled PD-L1-Ig)). Conditions: Jurkat-PD-1 cells, Alexa fluor-647 labeled PD-L1-Ig 177 nM; head μM; read-out: CBA Method 3 μM.
T1 construct: expressed in transfected cells; host or cells: Jurkat
In short: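 Readout by high-content imaging of PFA-fixed, Hoechst-stained cells after 1 h with 177 nM (final) Alexa fluor-647 PD-L1-Ig. Compound was added first to hPD-1 Jurkat cells in RPMI plus 10% FCS for 2 h at 37 °C.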

T1 sequence (Q15116 25-288): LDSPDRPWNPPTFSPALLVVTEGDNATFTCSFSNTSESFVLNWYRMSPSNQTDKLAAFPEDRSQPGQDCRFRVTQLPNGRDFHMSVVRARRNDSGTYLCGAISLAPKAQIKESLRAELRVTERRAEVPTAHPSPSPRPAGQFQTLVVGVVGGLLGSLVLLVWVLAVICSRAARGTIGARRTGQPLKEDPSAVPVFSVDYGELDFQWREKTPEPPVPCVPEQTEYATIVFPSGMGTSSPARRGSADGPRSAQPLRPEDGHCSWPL

Row | SMILES | IC50 [µM]
1 | CC(C)C[C@H]1NC(=O)[C@H](C)N(C)C(=O)[C@H](CCC(N)=O)NC(=O)[C@H](Cc2ccc(-c3ccccc3)cc2)NC(=O)[C@H](Cc2ccc(OCC(=O)O)cc2)NC(=O)[C@H](Cc2cccc(C(F)(F)F)c2)NC(=O)[C@H](CC(=O)O)NC(=O)[C@H](CCc2ccccc2)NC(=O)[C@H](CN2CCOCC2)NC(=O)CSC[C@@H](C(=O)N[C@@H](CCN)C(N)=O)NC(=O)[C@H](CCCN)NC(=O)[C@H](C(C)C)NC(=O)[C@H](CC2CCCCC2)NC(=O)[C@H](CCN)NC1=O [Example 5264] ({CH2CO}-[Ala(morpholin-4-yl)][hPhe]D[Phe(3-CF3)]Y(Carboxymethyl)[Bip]Q[NMeA][dL][Dab][Cha]V[Orn]C[Dab]-NH2; thioether N-14) | 0.1
2 | Cc1cccc(C[C@@H]2NC(=O)[C@H](CC(=O)O)NC(=O)[C@H](Cc3ccc(OCC(=O)O)cc3)NC(=O)[C@H](CCc3ccccc3)NC(=O)CSC[C@@H](C(=O)N[C@@H](CCN)C(N)=O)NC(=O)[C@H](CCCN)NC(=O)[C@H](C(C)C)NC(=O)[C@H](CC3CCCCC3)NC(=O)[C@H](CCN)NC(=O)[C@@H](CC(C)C)NC(=O)[C@H](C)N(C)C(=O)[C@H](CCC(N)=O)NC(=O)[C@H](Cc3ccc(-c4ccccc4)cc3)NC(=O)[C@H](Cc3ccc(C(=O)O)cc3)NC2=O)c1 [Example 5265] ({CH2CO}-[hPhe]Y(Carboxymethyl)D[Phe(3-Me)][Phe(4-COOH)][Bip]Q[NMeA][dL][Dab][Cha]V[Orn]C[Dab]-NH2; thioether N-14) | 0.03

Results, then the compound that gave them:

Row | IC50 [µM] | SMILES
3 | 0.03 | Cc1cccc(C[C@@H]2NC(=O)[C@H](CC(=O)O)NC(=O)[C@H](Cc3ccc(OCC(=O)O)cc3)NC(=O)[C@H](CC3CCCCC3)NC(=O)CSC[C@@H](C(=O)N[C@@H](CCN)C(N)=O)NC(=O)[C@H](Cc3cnc[nH]3)NC(=O)[C@H](C(C)(C)O)NC(=O)[C@H](CC3CCCCC3)NC(=O)[C@H](CCN)NC(=O)[C@@H](CC(C)C)NC(=O)[C@H](C)N(C)C(=O)[C@H](CCC(N)=O)NC(=O)[C@H](Cc3ccc(-c4ccccc4)cc3)NC(=O)[C@H](CCc3ccccc3)NC2=O)c1 [Example 5277] ({CH2CO}-[Cha]Y(Carboxymethyl)D[Phe(3-Me)][hPhe][Bip]Q[NMeA][dL][Dab][Cha][Val(3-OH)]HC[Dab]-NH2; thioether N-14)
4 | 0.31 | Cc1cccc(C[C@@H]2NC(=O)[C@H](CC(=O)O)NC(=O)[C@H](Cc3ccc(OCC(=O)O)cc3)NC(=O)[C@H](Cc3ccc(CNC(=N)N)cc3)NC(=O)CSC[C@@H](C(=O)N[C@@H](CCN)C(N)=O)NC(=O)[C@H](CCCN)NC(=O)[C@H](C(C)C)NC(=O)[C@H](CC3CCCCC3)NC(=O)[C@H](CCN)NC(=O)[C@@H](CC(C)C)NC(=O)[C@H](C)N(C)C(=O)[C@H](CCC(N)=O)NC(=O)[C@H](Cc3ccc(-c4ccccc4)cc3)NC(=O)[C@H](Cc3ccc(C(=O)O)cc3)NC2=O)c1 [Example 5278] ({CH2CO}-[X32]Y(Carboxymethyl)D[Phe(3-Me)][Phe(4-COOH)][Bip]Q[NMeA][dL][Dab][Cha]V[Orn]C[Dab]-NH2; thioether N-14)

Same assay, conditions: Jurkat-PD-1 cells, Alexa fluor-647 labeled PD-L1-Ig 177 nM; nM; read-out: CBA Method 3

Row | SMILES | IC50 [µM]
5 | Cc1cccc(C[C@@H]2NC(=O)[C@H](CC(=O)O)NC(=O)[C@H](Cc3ccc(OCC(=O)O)cc3)NC(=O)[C@H](C)NC(=O)CSC[C@@H](C(=O)N[C@@H](CCN)C(N)=O)NC(=O)[C@H](CCCN)NC(=O)[C@H](C(C)C)NC(=O)[C@H](CC3CCCCC3)NC(=O)[C@H](CCN)NC(=O)[C@@H](CC(C)C)NC(=O)[C@H](C)N(C)C(=O)[C@H](CCC(N)=O)NC(=O)[C@H](Cc3ccc(-c4ccccc4)cc3)NC(=O)[C@H](Cc3ccc(C(=O)O)cc3)NC2=O)c1 [Example 5266] ({CH2CO}-AY(Carboxymethyl)D[Phe(3-Me)][Phe(4-COOH)][Bip]Q[NMeA][dL][Dab][Cha]V[Orn]C[Dab]-NH2; thioether N-14) | 0.002
6 | Cc1cccc(C[C@@H]2NC(=O)[C@H](CC(=O)O)NC(=O)[C@H](Cc3ccc(OCC(=O)O)cc3)NC(=O)[C@H](Cc3ccccc3)NC(=O)CSC[C@@H](C(=O)N[C@@H](CCN)C(N)=O)NC(=O)[C@H](CCCN)NC(=O)[C@H](C(C)C)NC(=O)[C@H](CC3CCCCC3)NC(=O)[C@H](CCN)NC(=O)[C@@H](CC(C)C)NC(=O)[C@H](C)N(C)C(=O)[C@H](CCC(N)=O)NC(=O)[C@H](Cc3ccc(-c4ccccc4)cc3)NC(=O)[C@H](Cc3ccc(C(=O)O)cc3)NC2=O)c1 [Example 5267] ({CH2CO}-FY(Carboxymethyl)D[Phe(3-Me)][Phe(4-COOH)][Bip]Q[NMeA][dL][Dab][Cha]V[Orn]C[Dab]-NH2; thioether N-14) | 0.0012
7 | CC[C@H](C)[C@@H]1NC(=O)CSC[C@@H](C(=O)N[C@@H](CCN)C(N)=O)NC(=O)[C@H](CCCN)NC(=O)[C@H](C(C)C)NC(=O)[C@H](CC2CCCCC2)NC(=O)[C@H](CCN)NC(=O)[C@@H](CC(C)C)NC(=O)[C@H](C)N(C)C(=O)[C@H](CCC(N)=O)NC(=O)[C@H](Cc2ccc(-c3ccccc3)cc2)NC(=O)[C@H](Cc2ccc(C(=O)O)cc2)NC(=O)[C@H](Cc2cccc(C)c2)NC(=O)[C@H](CC(=O)O)NC(=O)[C@H](Cc2ccc(OCC(=O)O)cc2)NC1=O [Example 5268] ({CH2CO}-IY(Carboxymethyl)D[Phe(3-Me)][Phe(4-COOH)][Bip]Q[NMeA][dL][Dab][Cha]V[Orn]C[Dab]-NH2; thioether N-14) | 0.0053
8 | Cc1cccc(C[C@@H]2NC(=O)[C@H](CC(=O)O)NC(=O)[C@H](Cc3ccc(OCC(=O)O)cc3)NC(=O)[C@H](Cc3ccc(O)cc3)NC(=O)CSC[C@@H](C(=O)N[C@@H](CCN)C(N)=O)NC(=O)[C@H](CCCN)NC(=O)[C@H](C(C)C)NC(=O)[C@H](CC3CCCCC3)NC(=O)[C@H](CCN)NC(=O)[C@@H](CC(C)C)NC(=O)[C@H](C)N(C)C(=O)[C@H](CCC(N)=O)NC(=O)[C@H](Cc3ccc(-c4ccccc4)cc3)NC(=O)[C@H](Cc3ccc(C(=O)O)cc3)NC2=O)c1 [Example 5271] ({CH2CO}-YY(Carboxymethyl)D[Phe(3-Me)][Phe(4-COOH)][Bip]Q[NMeA][dL][Dab][Cha]V[Orn]C[Dab]-NH2; thioether N-14) | 0.001

The remaining lines, values ahead:

Row | IC50 [µM] | SMILES
9 | 0.0005 | Cc1cccc(C[C@@H]2NC(=O)CSC[C@@H](C(=O)N[C@@H](CCN)C(N)=O)NC(=O)[C@H](CCCN)NC(=O)[C@H](C(C)C)NC(=O)[C@H](CC3CCCCC3)NC(=O)[C@H](CCN)NC(=O)[C@@H](CC(C)C)NC(=O)[C@H](C)N(C)C(=O)[C@H](CCC(N)=O)NC(=O)[C@H](Cc3ccc(-c4ccccc4)cc3)NC(=O)[C@H](Cc3ccc(C(=O)O)cc3)NC(=O)[C@H](Cc3cccc(C)c3)NC(=O)[C@H](CC(=O)O)NC(=O)[C@H](Cc3ccc(OCC(=O)O)cc3)NC2=O)c1 [Example 5273] ({CH2CO}-[Phe(3-Me)]Y(Carboxymethyl)D[Phe(3-Me)][Phe(4-COOH)][Bip]Q[NMeA][dL][Dab][Cha]V[Orn]C[Dab]-NH2; thioether N-14)
10 | 0.006 | Cc1cccc(C[C@@H]2NC(=O)[C@H](CC(=O)O)NC(=O)[C@H](Cc3ccc(OCC(=O)O)cc3)NC(=O)[C@H](Cc3cnc[nH]3)NC(=O)CSC[C@@H](C(=O)N[C@@H](CCN)C(N)=O)NC(=O)[C@H](CCCN)NC(=O)[C@H](C(C)C)NC(=O)[C@H](CC3CCCCC3)NC(=O)[C@H](CCN)NC(=O)[C@@H](CC(C)C)NC(=O)[C@H](C)N(C)C(=O)[C@H](CCC(N)=O)NC(=O)[C@H](Cc3ccc(-c4ccccc4)cc3)NC(=O)[C@H](Cc3ccc(C(=O)O)cc3)NC2=O)c1 [Example 5274] ({CH2CO}-HY(Carboxymethyl)D[Phe(3-Me)][Phe(4-COOH)][Bip]Q[NMeA][dL][Dab][Cha]V[Orn]C[Dab]-NH2; thioether N-14)
11 | 0.0016 | Cc1cccc(C[C@@H]2NC(=O)[C@H](CC(=O)O)NC(=O)[C@H](Cc3ccc(OCC(=O)O)cc3)NC(=O)[C@H](C(C)(C)O)NC(=O)CSC[C@@H](C(=O)N[C@@H](CCN)C(N)=O)NC(=O)[C@H](CCCN)NC(=O)[C@H](C(C)C)NC(=O)[C@H](CC3CCCCC3)NC(=O)[C@H](CCN)NC(=O)[C@@H](CC(C)C)NC(=O)[C@H](C)N(C)C(=O)[C@H](CCC(N)=O)NC(=O)[C@H](Cc3ccc(-c4ccccc4)cc3)NC(=O)[C@H](Cc3ccc(C(=O)O)cc3)NC2=O)c1 [Example 5275] ({CH2CO}-[Val(3-OH)]Y(Carboxymethyl)D[Phe(3-Me)][Phe(4-COOH)][Bip]Q[NMeA][dL][Dab][Cha]V[Orn]C[Dab]-NH2; thioether N-14)
12 | 0.0011 | Cc1cccc(C[C@@H]2NC(=O)[C@H](CC(=O)O)NC(=O)[C@H](Cc3ccc(OCC(=O)O)cc3)NC(=O)[C@H](Cc3cccc(C(F)(F)F)c3)NC(=O)CSC[C@@H](C(=O)N[C@@H](CCN)C(N)=O)NC(=O)[C@H](CCCN)NC(=O)[C@H](C(C)C)NC(=O)[C@H](CC3CCCCC3)NC(=O)[C@H](CCN)NC(=O)[C@@H](CC(C)C)NC(=O)[C@H](C)N(C)C(=O)[C@H](CCC(N)=O)NC(=O)[C@H](Cc3ccc(-c4ccccc4)cc3)NC(=O)[C@H](Cc3ccc(C(=O)O)cc3)NC2=O)c1 [Example 5276] ({CH2CO}-[Phe(3-CF3)]Y(Carboxymethyl)D[Phe(3-Me)][Phe(4-COOH)][Bip]Q[NMeA][dL][Dab][Cha]V[Orn]C[Dab]-NH2; thioether N-14)
13 | 0.0046 | CC(C)C[C@H]1NC(=O)[C@H](C)N(C)C(=O)[C@H](CCC(N)=O)NC(=O)[C@H](Cc2ccc(-c3ccccc3)cc2)NC(=O)[C@H](CCc2ccccc2)NC(=O)[C@H](Cc2cccc(C(F)(F)F)c2)NC(=O)[C@H](CC(=O)N[C@@H](CC(=O)O)C(=O)O)NC(=O)[C@H](Cc2ccc(OCC(=O)O)cc2)NC(=O)[C@H](CN2CCOCC2)NC(=O)CSC[C@@H](C(=O)N[C@@H](CCN)C(N)=O)NC(=O)[C@H](CCCN)NC(=O)[C@H](C(C)C)NC(=O)[C@H](CC2CCCCC2)NC(=O)[C@H](CCN)NC1=O [Example 5280] ({CH2CO}-[Ala(morpholin-4-yl)]Y(Carboxymethyl)D(Asp)[Phe(3-CF3)][hPhe][Bip]Q[NMeA][dL][Dab][Cha]V[Orn]C[Dab]-NH2; thioether N-14)
